Reference: US11407715B2, “Substituted indoline derivatives as dengue viral replication inhibitors” (JANSSEN PHARMACEUTICALS, INC., priority 2017, dated 2022)
pEC50: −log10 of the molar value.

Legend:
DENV-2 16681 strain = assay: microbe, parasite or virus in culture; assay type: cell-based, Dengue virus; settings: for pEC50: DENV-2 16681 eGFP, Vero cells, MOI 0.5, 3 days; for SI: SI=CC50/EC50, DENV-2 antiviral assay
Vero cells = settings: African green monkey

Compound | pEC50 (DENV-2 16681 strain) | SI (DENV-2 16681 strain) | CC50 (Vero cells) [µM]
COc1cc(NC(C(=O)N2CCc3cc(F)c(OC(F)(F)F)cc32)c2ccc(Cl)cc2)cc(OCC2CC2C(=O)O)c1 (single isomer, unassigned) [Compound 26B, (1 S*,2S*)-2-((3-((1-(4-chlorophenyl)-2-(5-fluoro-6-(trifluoromethoxy)indolin-1-yl)-2-oxoethyl)amino)-5-methoxyphenoxy)methyl)-cyclopropanecarboxylic Acid] | 9.03 | 10600 | 12
COc1cc(NC(C(=O)N2CCc3ccc(OC(F)(F)F)cc32)c2ccc(Cl)cc2)cc(OCC2(F)CC2C(=O)O)c1 (stereo not drawn) [Compound 29BA] | 8.47 | 2890 | 9.8
COc1cc(NC(C(=O)N2CCc3ccc(OC(F)(F)F)cc32)c2ccc(Cl)cc2)cc(OCC2(CC(=O)O)CC2)c1 (single isomer, unassigned) [Compound 5B] | 7.96 | 921 | 10
COc1cc(NC(C(=O)N2CCc3ccc(OC(F)(F)F)cc32)c2ccc(Cl)cc2)cc(OCC2CC(C(=O)O)C2)c1 (stereo not drawn) [Compound 11A] | 8.42 | 2710 | 10
COc1cc(NC(C(=O)N2CCc3ccc(OC(F)(F)F)cc32)c2ccc(Cl)cc2)cc(OCCC(C)C(=O)O)c1 (single isomer, unassigned) [Compound 1A] | 7.74 | 523 | 9.6
COc1cc(NC(C(=O)N2CCc3cc(OC)c(C(F)(F)F)cc32)c2ccc(Cl)cc2)cc(OCC2CC(C(=O)O)C2)c1 (stereo not drawn) [Compound 25A] | 8.15 | 1640 | 12
COc1cc(NC(C(=O)N2CCc3cc(OC)c(C(F)(F)F)cc32)c2ccc(Cl)cc2)cc(OCCC(C)C(=O)O)c1 (single isomer, unassigned) [Compound 20B] | 6.74 | 69 | 12
COc1cc(NC(C(=O)N2CCc3ccc(OC(F)(F)F)cc32)c2ccc(Cl)cc2)cc(OCC2CC2C(=O)O)c1 (stereo not drawn) [Compound 6BA] | 7.92 | 703 | 8.7
COc1cc(NC(C(=O)N2CCc3ccc(OC(F)(F)F)cc32)c2ccc(Cl)cc2OC)cc(OCC2CC2C(=O)O)c1 (stereo not drawn) [Compound 19BA] | 7.80 | 707 | 11
COc1cc(NC(C(=O)N2CCc3ccc(OC(F)(F)F)cc32)c2ccc(Cl)cc2)cc(OCC2(F)CC2C(=O)O)c1 (stereo not drawn) [Compound 29AA] | 7.21 | 151 | 9.2
COc1cc(NC(C(=O)N2CCc3ccc(OC(F)(F)F)cc32)c2ccc(Cl)cc2)cc(OCC(C)CC(=O)O)c1 (single isomer, unassigned) [Compound 4B] | 7.96 | 935 | 10
COc1cc(NC(C(=O)N2CCc3ccc(OC(F)(F)F)cc32)c2ccc(Cl)cc2OC)cc(OCCC(C)C(=O)O)c1 (single isomer, unassigned) [Compound 17B] | 6.74 | 59 | 11
COc1cc(NC2CC(C(=O)O)C2)cc(NC(C(=O)N2CCc3ccc(OC(F)(F)F)cc32)c2ccc(Cl)cc2)c1 (single isomer, unassigned) [Compound 33B] | 8.10 | 1760 | 14
COc1cc(NC(C(=O)N2CCc3cc(OC)c(C(F)(F)F)cc32)c2ccc(Cl)cc2)cc(OCC2CC(C(=O)O)C2)c1 (stereo not drawn) [Compound 24A] | 7.62 | 469 | 11
COc1cc(NC(C(=O)N2CCc3ccc(OC(F)(F)F)cc32)c2ccc(Cl)cc2)cc(OCCC(C)(C)C(=O)O)c1 (single isomer, unassigned) [Compound 2B] | 7.72 | 565 | 11
COc1cc(NC(C(=O)N2CCc3ccc(OC(F)(F)F)cc32)c2ccc(Cl)cc2)cc(OCCC(C)C(=O)O)c1 (single isomer, unassigned) [Compound 1B] | 7.74 | 579 | 10
